In PMC5510229, “BCAT1 controls metabolic reprogramming in activated human macrophages and is associated with inflammatory diseases” (Nature Communications, 2017):

Legend:
[1] = test system: human monocyte-derived macrophages (hMDMs); experiment: qRT-PCR / Western blot of activation markers in hMDMs; type: cell-based; conditions: 3 h
Description: Figure 1 BCAT1 expression and inhibition in human macrophages. […] (b) Chemical structure of ERG240 and leucine. (c) Enzymatic activity of recombinant human BCAT1 and BCAT2 in presence of ERG240. (d) Relative expression of IRG1, HIF1A and IL1B measured by qRT-PCR in control, ERG240-treated (20 mM, 3 h), LPS treated (100 ng ml^−1, 3 h), and LPS+ERG240 treated (LPS, 100 ng ml^−1; ERG240, 20 mM for 3 h) hMDMs. ns, non-significant. All expression values are normalized to those obtained for HPRT gene expression. n=3 healthy donor hMDMs were used in each group. (e) Western blot analysis of IRG1, IL-1β, HIF-1α and beta-actin (ACTB) in control (untreated), ERG240-treated (20 mM, 3 h), LPS treated (100 ng ml^−1, 3 h) and LPS+ERG240 treated (LPS, 100 ng ml^−1; ERG240, 20 mM for 3 h) hMDMs. […]
hMDMs were lysed in Laemmli sample buffer supplemented with protease inhibitors and resolved by SDS-PAGE, transferred into PVDF membranes, and subjected to immunoblotting with the primary antibodies described above and secondary detection antibodies. The probed proteins were detected using SuperSignal West Femto Chemiluminescent Substrate (Thermo Fisher Scientific Inc., Rockford, IL). […] Results were analysed using the comparative Ct method and each sample was normalized to the indicated reference gene, to account for any cDNA loading differences. […]

[2] = Blood brain barrier crossing
From the text: NCOMMS-16-23550_Point by Point Responses Papathanassiu et al.
6. It would be interesting to know why the half -life in animals is very low. Again, is the drug metabolized by the organism? (see also point 3).
Authors’ reply. The pharmacokinetic study that determined the half -life of the drug in mice […]
ERG240 is completely absorbed and not subject to first -pass metabolism. Since the drug is structurally a leucine analogue, it is likely to be uptaken by the ubiquitously expressed amino acid transporter LAT1. In that light, the low half -life of the drug is related to its complete and swift absorption by various sites rather to a phase I or II metabolic reaction. ERG240 is also […]
preferentially in the brain. […]
metabolism of the drug in human macrophages, please see the response to point 3, which […]
7. Leucine is degraded to acetyl -Coa and acetoacetate both fueling cellular acetyl -Coa pools. Does decreased activity of BCAT1 impact cellular acetyl -Coa and citrate levels? Itaconate synthesis is a sink for citrate and diverts carbon away from the TCA cycle. […]
have measured citrate levels in 4 donors following LPS and LPS + ERG240 treatment for 3 hours by GC-MS. […]
Itaconate levels measured by GC/MS were further confirmed in si-BCAT1 and si-Control MDMs from independent donors (n=4, left panel). […]

## CC(=O)C(C)CCC(=O)O (stereo not shown) [ERG240]
[1]; LPS 100 ng ml^−1 + ERG240 20 mM
  IRG1 protein levels (Western blot): reduction in IRG1 levels
[1]; LPS-stimulated hMDMs (100 ng ml^−1), ERG240 20 mM
  IRG1 mRNA levels: dramatic reduction
[2]
  accumulation in the brain: does not accumulate
  crossing of the blood brain barrier: capable of crossing the blood brain barrier
